Data as given in ChEMBL document CHEMBL1201862, “PubChem BioAssay data set” (2004).
Activity calls are given as the source filed them.

What was measured:
[1] = target: Cytochrome P450 2D6 (Homo sapiens, UniProt P10635); experiment: qHTS Assay for Inhibitors and Substrates of Cytochrome P450 2D6. [Related pubchem assays: 410 ]; assay type: ADME; conditions: read-out: Potency
[2] = system: Streptococcus sp. 'group A'; experiment: Streptococcus pyogenes SK(-)GAS viability under kanamycin – luminescence, BacTiterGlo, confirmation, counter-screen for streptokinase expression inhibitor project, dose response (AID 1900); assay type: functional, organism-based
[3] = target: Serine/threonine-protein phosphatase PP1-alpha catalytic subunit (Homo sapiens, UniProt P62136); experiment: inhibition of protein phosphatase 1 activity – biochemical, fluorescence, dose response (AID 2403);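 note: phosphatase turnover of OMFP into fluorescent 3-O-methylfluorescein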
Sequence of Serine/threonine-protein phosphatase PP1-alpha catalytic subunit (P62136 whole entry): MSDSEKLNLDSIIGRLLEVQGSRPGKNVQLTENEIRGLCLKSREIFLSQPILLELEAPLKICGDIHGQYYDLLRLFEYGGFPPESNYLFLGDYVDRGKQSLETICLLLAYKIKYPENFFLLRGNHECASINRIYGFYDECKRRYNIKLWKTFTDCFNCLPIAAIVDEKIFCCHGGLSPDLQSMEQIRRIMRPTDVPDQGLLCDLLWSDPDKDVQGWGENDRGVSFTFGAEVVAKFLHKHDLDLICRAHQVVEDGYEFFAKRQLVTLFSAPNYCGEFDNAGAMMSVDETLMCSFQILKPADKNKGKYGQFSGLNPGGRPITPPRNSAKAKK

[4] = target: T1, Streptokinase A (Streptococcus pyogenes serotype M1, UniProt P10520); experiment: viability-normalized secreted streptokinase activity reduction – plasminogen activation absorbance, OD405, dose response (AID 1914); assay type: functional, Streptococcus pyogenes M1 GAS;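 note: secreted streptokinase activity via plasminogen activation per viability signal from cell pellet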
T1 sequence (P10520 whole entry): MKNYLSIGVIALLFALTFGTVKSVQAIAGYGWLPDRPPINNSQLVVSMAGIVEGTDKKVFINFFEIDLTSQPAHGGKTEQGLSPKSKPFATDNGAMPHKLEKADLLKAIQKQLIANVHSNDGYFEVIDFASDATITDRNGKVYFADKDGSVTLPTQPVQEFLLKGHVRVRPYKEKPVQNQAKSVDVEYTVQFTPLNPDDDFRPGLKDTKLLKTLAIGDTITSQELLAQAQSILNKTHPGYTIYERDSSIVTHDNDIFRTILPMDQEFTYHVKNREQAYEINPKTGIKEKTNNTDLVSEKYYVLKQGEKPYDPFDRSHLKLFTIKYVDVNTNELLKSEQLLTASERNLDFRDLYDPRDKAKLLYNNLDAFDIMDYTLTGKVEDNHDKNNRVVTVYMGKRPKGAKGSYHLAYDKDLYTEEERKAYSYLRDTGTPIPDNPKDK

[5] = Trypanosoma cruzi growth suppression in host cells – NIH3T3 host cells, beta-gal luminescence, confirmation (AID 2044); assay type: functional, cell-based;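 note: intracellular parasites grown in NIH/3T3 mouse fibroblasts as host cells; luminescent beta-galactosidase reporter signal from transgenic T. cruzi replicating inside host cells; inhibitors lower the luminescence signal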
[6] = target: Serine/threonine-protein phosphatase (Homo sapiens, UniProt Q9BPW0); experiment: Counterscreen for inhibitors of PP1: fluorescence-based biochemical high throughput dose response assay to identify inhibitors of Protein Phosphatase 5 (PP5). [Related pubchem assays: 2034 (Summary (PP5 inhibitors)), 1987 (PP5 inhibitors in singlate), 2235 (PP1 inhibitors in singlate)]
Sequence of Serine/threonine-protein phosphatase (Q9BPW0 whole entry): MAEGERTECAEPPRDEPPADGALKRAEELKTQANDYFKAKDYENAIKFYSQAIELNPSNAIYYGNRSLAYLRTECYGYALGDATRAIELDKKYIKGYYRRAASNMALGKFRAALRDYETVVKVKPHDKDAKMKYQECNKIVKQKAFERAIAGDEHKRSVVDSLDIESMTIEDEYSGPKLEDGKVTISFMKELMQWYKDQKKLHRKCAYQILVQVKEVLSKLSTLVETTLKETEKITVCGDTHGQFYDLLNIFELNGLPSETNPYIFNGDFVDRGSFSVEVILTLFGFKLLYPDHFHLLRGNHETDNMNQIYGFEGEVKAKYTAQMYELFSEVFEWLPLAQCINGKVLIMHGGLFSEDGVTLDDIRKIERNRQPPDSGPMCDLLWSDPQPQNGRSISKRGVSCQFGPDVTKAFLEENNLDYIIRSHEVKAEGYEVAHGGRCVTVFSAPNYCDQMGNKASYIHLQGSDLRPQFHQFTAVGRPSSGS

[7] = NIH3T3 cell viability loss – ATP luminescence, mouse fibroblasts, counter-screen, dose response (AID 2010); assay type: functional, cell-based;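 note: cells exposed to compound for about 90 hours before reading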
[8] = system: Streptococcus; experiment: GAS UMAA2166 growth inhibition – luminescence, BacTiterGlo, counter-screen for streptokinase expression inhibitor project, dose response (AID 1915); assay type: functional, organism-based;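 note: potency for reduction of bacterial viability or growth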
[9] = system: INS1; experiment: INS-1E survival protection against cytokine death – cell-based, luminescence, retest, dose response (AID 449756); assay type: functional; conditions: Rattus norvegicus;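 note: cell death triggered by IL-1 beta plus TNF-alpha plus IFN-gamma mixture; protective hits raise ATP signal compared with cytokine alone wells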
[10] = target: G-protein coupled receptor 55 (Homo sapiens, UniProt Q9Y2T6); experiment: selective activators of receptor GPR55 – imaging, U2OS cells, beta-arrestin-GFP redistribution, primary screen (AID 1961); assay type: functional
Sequence of G-protein coupled receptor 55 (Q9Y2T6 whole entry): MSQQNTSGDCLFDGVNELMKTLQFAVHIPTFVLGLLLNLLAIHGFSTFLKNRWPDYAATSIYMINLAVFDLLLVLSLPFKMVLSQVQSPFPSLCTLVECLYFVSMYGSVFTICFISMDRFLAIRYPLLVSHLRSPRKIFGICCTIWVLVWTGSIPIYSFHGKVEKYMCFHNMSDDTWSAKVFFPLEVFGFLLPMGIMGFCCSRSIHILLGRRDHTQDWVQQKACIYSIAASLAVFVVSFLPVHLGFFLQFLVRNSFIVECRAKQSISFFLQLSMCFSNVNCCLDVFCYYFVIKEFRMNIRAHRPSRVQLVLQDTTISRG

[11] = target: Voltage-dependent T-type calcium channel subunit alpha-1H (Homo sapiens, UniProt O95180); assay type: functional;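 note: channel activity triggered by adding a high calcium stimulation buffer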
[12] = system: H9c2; experiment: cells; assay type: functional, cell-based; conditions: Rattus norvegicus, H9c2, Myocardium;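 note: confirmatory concentration-response retest of ultra-high-throughput screening hits for modulation of myocardial damage; cell death induced by hydrogen peroxide oxidative stress; compound pretreatment for 60 min then peroxide exposure for 2 h; potency is for protecting the cells against peroxide damage rather than for killing them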
[13] = target: Protein Rev (Human immunodeficiency virus type 1 group M subtype B (isolate HXB2)(HIV-1), UniProt P04618); experiment: blockers of HIV Rev/RRE RNA complex – biochemical, fluorescence polarization, HIV-1, dose response (AID 434976); set-up: species or system Human immunodeficiency virus 1
Sequence of Protein Rev (P04618 whole entry): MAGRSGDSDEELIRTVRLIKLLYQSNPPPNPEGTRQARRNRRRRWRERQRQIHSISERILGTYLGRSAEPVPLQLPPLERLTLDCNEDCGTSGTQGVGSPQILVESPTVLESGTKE

[14] = target: Female germline-specific tumor suppressor gld-1 (Caenorhabditis elegans, UniProt Q17339); experiment: blockers of GLD-1/TGE RNA complex formation – biochemical, fluorescence polarization, C. elegans, dose response (AID 2802);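 note: fluorescence polarization of labeled TGE RNA bound by purified gld-1 protein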
Sequence of Female germline-specific tumor suppressor gld-1 (Q17339 whole entry): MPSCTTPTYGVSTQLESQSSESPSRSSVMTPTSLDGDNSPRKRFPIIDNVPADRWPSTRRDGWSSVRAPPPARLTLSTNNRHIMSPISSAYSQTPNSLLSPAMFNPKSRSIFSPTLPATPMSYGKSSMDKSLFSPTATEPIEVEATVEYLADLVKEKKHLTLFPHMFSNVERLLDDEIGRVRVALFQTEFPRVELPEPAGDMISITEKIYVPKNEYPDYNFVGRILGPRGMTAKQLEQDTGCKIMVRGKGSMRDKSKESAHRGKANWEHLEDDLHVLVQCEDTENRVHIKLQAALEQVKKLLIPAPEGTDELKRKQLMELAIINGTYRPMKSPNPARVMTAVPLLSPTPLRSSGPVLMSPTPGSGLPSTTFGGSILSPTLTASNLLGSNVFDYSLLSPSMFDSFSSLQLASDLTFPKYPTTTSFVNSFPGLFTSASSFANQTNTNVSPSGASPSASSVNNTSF

[15] = target: T2, Polyadenylate-binding protein 1 (Homo sapiens, UniProt P11940); experiment: MLLE binding blockers, Cy5 peptide tracer – biochemical, fluorescence polarization, Cy5-PAM2 peptide, secondary, miRNA deadenylation inhibitor project, dose response (AID 602260); assay type: functional; conditions: read-out: IC50_Mean
T2 sequence (P11940 whole entry, the tested form may be a part): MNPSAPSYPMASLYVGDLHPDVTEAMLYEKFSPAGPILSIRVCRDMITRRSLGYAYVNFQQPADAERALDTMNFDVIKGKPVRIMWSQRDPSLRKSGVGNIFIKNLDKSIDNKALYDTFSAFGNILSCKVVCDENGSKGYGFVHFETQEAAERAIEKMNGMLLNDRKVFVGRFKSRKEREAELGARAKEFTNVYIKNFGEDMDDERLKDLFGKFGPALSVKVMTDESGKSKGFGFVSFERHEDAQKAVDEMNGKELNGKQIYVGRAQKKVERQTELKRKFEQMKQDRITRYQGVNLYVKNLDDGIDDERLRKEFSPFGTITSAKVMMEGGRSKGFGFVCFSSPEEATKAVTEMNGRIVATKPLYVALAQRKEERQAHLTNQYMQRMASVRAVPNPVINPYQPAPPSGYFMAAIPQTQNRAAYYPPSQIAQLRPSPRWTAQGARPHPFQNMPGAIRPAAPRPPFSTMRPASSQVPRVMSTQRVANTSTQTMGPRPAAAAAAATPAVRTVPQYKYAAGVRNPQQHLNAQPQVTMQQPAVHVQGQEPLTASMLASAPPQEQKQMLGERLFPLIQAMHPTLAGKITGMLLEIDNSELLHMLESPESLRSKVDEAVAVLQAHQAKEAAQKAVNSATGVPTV

[16] = target: T2, Polyadenylate-binding protein 1; experiment: MLLE domain peptide-binding blockers, IC50 – biochemical, fluorescence polarization, FITC-PAM2 peptide, dose response (AID 602259); assay type: functional; conditions: read-out: IC50_Mean
[17] = target: T3, Tyrosine-protein phosphatase non-receptor type 7 (Homo sapiens, UniProt P35236); assay type: functional
T3 sequence (P35236 whole entry): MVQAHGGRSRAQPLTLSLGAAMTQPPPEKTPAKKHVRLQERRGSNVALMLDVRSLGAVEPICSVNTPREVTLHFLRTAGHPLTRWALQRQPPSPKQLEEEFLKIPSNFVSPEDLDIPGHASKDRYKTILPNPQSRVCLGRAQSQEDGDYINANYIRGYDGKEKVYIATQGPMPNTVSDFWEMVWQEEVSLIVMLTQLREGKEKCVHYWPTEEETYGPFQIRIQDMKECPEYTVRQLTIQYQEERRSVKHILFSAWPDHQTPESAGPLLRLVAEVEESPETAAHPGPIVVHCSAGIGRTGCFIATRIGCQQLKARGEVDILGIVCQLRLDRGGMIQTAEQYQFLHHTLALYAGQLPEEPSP

[18] = target: Glyceraldehyde-3-phosphate dehydrogenase (Homo sapiens, UniProt P04406)
Sequence of Glyceraldehyde-3-phosphate dehydrogenase (P04406 whole entry): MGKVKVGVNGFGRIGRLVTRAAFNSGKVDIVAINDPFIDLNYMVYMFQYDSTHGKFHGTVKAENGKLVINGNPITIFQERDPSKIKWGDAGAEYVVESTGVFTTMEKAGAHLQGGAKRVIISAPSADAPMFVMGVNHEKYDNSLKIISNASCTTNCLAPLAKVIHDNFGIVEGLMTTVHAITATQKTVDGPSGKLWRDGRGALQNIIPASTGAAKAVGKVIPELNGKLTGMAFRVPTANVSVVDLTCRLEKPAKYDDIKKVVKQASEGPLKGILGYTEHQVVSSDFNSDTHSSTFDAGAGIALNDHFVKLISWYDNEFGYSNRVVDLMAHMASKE

[19] = target: T4, Dual specificity protein phosphatase 6 (Rattus norvegicus, UniProt Q64346)
T4 sequence (Q64346 whole entry): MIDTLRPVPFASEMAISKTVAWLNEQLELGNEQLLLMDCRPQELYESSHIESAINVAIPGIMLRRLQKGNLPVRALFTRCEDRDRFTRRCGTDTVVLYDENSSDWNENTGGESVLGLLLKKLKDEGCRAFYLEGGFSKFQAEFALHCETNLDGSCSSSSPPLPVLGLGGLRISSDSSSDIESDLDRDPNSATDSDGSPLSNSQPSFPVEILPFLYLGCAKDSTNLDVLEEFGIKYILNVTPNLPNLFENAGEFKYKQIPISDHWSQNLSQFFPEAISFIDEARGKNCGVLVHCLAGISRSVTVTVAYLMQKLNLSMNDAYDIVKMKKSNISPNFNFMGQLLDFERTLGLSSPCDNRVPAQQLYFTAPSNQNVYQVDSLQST

[20] = target: T4, Dual specificity protein phosphatase 6; assay type: functional
[21] = target: Cytochrome P450 2C19 (Homo sapiens, UniProt P33261); experiment: qHTS Assay for Inhibitors and Substrates of Cytochrome P450 2C19. [Related pubchem assays: 410 ]; assay type: ADME; conditions: read-out: Potency
Sequence of Cytochrome P450 2C19 (P33261 whole entry): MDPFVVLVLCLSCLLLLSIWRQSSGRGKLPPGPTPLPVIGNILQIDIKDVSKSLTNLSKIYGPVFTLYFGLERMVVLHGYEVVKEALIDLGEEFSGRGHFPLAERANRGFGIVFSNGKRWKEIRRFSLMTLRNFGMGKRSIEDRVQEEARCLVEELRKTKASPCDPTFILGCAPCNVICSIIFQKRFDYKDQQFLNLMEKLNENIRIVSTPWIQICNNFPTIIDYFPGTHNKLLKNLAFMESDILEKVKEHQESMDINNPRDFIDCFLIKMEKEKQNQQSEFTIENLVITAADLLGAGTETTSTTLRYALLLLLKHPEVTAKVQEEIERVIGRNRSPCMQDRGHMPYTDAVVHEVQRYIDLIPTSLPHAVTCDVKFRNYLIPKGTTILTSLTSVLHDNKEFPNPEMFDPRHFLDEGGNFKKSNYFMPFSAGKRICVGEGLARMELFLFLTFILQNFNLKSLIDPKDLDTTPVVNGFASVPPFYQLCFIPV

[22] = target: Lysosomal acid glucosylceramidase (Homo sapiens, UniProt P04062); experiment: Dose response cell-based high throughput screening assay to identify enhancers of beta-glucosidase activity. [Related pubchem assays: 784 ]; assay type: functional
Sequence of Lysosomal acid glucosylceramidase (P04062 whole entry): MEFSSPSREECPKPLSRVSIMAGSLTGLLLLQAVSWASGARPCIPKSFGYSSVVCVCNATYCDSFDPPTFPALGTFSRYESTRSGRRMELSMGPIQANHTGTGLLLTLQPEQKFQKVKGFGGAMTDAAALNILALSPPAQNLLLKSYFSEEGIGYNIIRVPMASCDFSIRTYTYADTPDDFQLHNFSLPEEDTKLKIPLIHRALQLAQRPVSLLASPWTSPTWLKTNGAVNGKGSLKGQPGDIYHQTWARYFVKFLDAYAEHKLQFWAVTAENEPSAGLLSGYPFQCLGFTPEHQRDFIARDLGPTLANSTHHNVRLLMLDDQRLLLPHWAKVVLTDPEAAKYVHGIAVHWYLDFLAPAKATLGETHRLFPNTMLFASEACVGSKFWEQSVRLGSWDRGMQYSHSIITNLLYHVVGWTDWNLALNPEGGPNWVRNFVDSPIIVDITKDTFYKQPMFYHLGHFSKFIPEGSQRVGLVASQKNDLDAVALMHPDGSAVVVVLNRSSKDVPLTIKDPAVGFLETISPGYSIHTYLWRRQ

[23] = A cytotoxicity screen of small molecule inhibitors of the PhoP region in Salmonella typhi identified in the primary screen. [Related pubchem assays: 1850, 1864, 1985 ]; assay type: functional
[24] = luciferase reporter signal reduction – luminescence, H4-C neuroglioblastoma cells, dose response (AID 2458); assay type: functional, cell-based;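 note: H4 neuroglioblastoma cells stably carrying a luciferase reporter gene fusion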
[25] = target: T5, RNA-binding protein pos-1 (Caenorhabditis elegans, UniProt G5EF15); experiment: disruptors of C. elegans POS-1 RNA interaction – biochemical, fluorescence polarization, dose response (AID 1964);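 note: purified POS-1 fused to maltose binding protein made in E. coli; potency of compounds blocking POS-1 binding to fluorescent RNA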
T5 sequence (G5EF15 whole entry): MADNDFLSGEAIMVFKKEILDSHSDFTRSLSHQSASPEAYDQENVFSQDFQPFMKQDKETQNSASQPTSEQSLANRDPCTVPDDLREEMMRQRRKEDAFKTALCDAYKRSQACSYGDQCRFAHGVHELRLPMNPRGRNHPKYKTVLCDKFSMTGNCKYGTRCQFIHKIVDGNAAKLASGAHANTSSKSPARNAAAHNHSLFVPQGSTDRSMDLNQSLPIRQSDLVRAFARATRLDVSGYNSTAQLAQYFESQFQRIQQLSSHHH

[26] = cells; assay type: functional, cell-based
[27] = target: T6, Zinc finger protein mex-5 (Caenorhabditis elegans, UniProt Q9XUB2); experiment: potency of MEX-5 RNA-binding blockers – biochemical, C. elegans, fluorescence polarization, dose response (AID 1960)
T6 sequence (Q9XUB2 whole entry): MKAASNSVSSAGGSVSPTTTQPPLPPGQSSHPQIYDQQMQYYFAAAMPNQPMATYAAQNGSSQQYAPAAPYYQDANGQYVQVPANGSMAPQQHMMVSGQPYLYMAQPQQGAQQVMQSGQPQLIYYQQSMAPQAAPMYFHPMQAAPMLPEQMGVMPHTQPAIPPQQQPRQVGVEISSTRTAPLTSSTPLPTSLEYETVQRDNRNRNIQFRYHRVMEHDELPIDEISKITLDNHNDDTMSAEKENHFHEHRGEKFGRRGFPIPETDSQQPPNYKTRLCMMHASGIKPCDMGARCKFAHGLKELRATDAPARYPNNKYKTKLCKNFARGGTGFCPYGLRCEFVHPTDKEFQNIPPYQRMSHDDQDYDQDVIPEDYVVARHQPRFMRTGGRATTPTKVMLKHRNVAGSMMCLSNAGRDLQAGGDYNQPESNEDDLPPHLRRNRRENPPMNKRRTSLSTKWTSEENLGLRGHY

[28] = target: T7, Heat shock factor protein 1 (Mus musculus, UniProt P38532); experiment: decrease of HSF1-responsive luciferase luminescence – cell-based, NIH3T3, dose retest, confirmation (AID 2382); assay type: functional;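 note: NIH3T3 fibroblasts with HSF1-driven luciferase reporter stressed by proteasome inhibitor MG132; luminescence from HSF1-driven luciferase expression after 8 hours of MG132 stress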
T7 sequence (P38532 whole entry): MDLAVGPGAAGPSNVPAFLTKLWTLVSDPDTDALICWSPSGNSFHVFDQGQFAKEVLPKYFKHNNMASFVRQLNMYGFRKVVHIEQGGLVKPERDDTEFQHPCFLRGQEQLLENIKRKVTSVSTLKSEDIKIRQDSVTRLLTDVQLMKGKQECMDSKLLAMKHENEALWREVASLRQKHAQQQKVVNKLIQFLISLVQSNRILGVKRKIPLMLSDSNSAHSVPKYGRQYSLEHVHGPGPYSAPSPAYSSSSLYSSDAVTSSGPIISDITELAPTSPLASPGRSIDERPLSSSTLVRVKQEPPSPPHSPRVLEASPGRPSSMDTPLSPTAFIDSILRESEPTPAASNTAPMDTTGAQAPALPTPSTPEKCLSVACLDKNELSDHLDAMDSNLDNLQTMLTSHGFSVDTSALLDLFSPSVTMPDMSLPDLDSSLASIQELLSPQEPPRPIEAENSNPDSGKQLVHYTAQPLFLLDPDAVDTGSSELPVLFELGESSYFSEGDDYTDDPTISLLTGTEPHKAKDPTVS

[29] = alpha-synuclein stem-loop luciferase translation blockers – H4 neuroglioma cells, luminescence, confirmation (AID 1988); assay type: functional, cell-based
[30] = alpha-synuclein stem-loop translation blockers – luminescence, H4 neuroglioblastoma cells, dose confirmation, confirmation (AID 2454); assay type: functional, cell-based;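 note: H4 neuroglioblastoma cells carrying an alpha-synuclein 5'UTR luciferase reporter; potency for inhibition of the luciferase signal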
[31] = target: DNA dC->dU-editing enzyme APOBEC-3A (Homo sapiens, UniProt P31941); experiment: A3A deaminase inhibition for selectivity – biochemical, dose response (AID 504722); assay type: functional
Sequence of DNA dC->dU-editing enzyme APOBEC-3A (P31941 whole entry): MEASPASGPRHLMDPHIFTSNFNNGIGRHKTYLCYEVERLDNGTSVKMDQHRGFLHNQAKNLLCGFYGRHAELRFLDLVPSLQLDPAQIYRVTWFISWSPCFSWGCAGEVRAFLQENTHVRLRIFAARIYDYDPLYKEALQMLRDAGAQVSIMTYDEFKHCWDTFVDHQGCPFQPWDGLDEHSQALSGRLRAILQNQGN

[32] = target: DNA dC->dU-editing enzyme APOBEC-3G (Homo sapiens, UniProt Q9HC16); experiment: Dose Response confirmation of small molecule APOBEC3G DNA Deaminase Inhibitors via a fluorescence-based single-stranded DNA deaminase assay. [Related pubchem assays (depositor defined):AID493012, AID493028]; assay type: functional
Sequence of DNA dC->dU-editing enzyme APOBEC-3G (Q9HC16 whole entry): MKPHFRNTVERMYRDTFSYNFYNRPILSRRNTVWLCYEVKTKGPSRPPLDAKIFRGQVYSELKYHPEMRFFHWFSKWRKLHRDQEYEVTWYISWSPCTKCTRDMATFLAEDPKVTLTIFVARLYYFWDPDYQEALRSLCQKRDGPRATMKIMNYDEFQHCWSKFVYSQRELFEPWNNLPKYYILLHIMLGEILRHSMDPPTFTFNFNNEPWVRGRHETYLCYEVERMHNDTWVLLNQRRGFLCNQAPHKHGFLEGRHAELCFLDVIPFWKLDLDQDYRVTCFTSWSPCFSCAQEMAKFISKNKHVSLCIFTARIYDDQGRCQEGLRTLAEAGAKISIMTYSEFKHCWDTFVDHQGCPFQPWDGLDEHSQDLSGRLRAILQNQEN

Sequence of Cytochrome P450 2D6 (P10635 whole entry): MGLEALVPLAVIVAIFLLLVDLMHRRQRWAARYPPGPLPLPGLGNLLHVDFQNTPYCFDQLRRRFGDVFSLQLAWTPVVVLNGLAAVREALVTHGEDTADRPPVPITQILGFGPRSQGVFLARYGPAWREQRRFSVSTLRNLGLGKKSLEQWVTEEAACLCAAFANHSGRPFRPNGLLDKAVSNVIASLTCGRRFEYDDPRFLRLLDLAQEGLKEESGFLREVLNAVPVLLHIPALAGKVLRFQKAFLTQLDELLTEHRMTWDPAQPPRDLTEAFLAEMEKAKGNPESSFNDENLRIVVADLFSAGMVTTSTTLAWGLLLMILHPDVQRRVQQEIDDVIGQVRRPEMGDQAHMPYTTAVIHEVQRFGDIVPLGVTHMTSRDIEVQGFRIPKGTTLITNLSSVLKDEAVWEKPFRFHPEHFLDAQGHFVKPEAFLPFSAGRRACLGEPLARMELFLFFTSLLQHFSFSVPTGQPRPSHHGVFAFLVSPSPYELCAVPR

## CC[C@@]12CCCN3CC[C@@]4(c5ccc(OC)c(O)c5N(C(C)=O)[C@H]4CC1)[C@H]32
[1]
  AC50: 20 µM (inconclusive)

## CCOC(=O)c1cnc(-n2nc(C)cc2C)nc1NCc1ccccc1
[2]
  EC50: 8.49 µM (active)
[3]
  IC50: 5.83 µM (active)
[4]
  EC50: > 150 µM (not active)
[5]
  EC50: 2.09 µM (active)
[6]
  IC50: > 67 µM (not active)
[7]
  EC50: > 60 µM (not active)
[8]
  EC50: 9.69 µM (active)
[9]
  AC50: 5.4 µM (active)

## COc1cc(C(CC(=O)N2CCCC2)c2c(OC)cc(OC)c3c(-c4ccccc4)cc(=O)oc23)cc(OC)c1OC (configuration not stated)
[10]
  EC50: 6.57 µM (active)

## CCC(=O)N1CCN(c2ccccc2NC(=O)COc2cc(C)ccc2C(C)C)CC1
[11]
  EC50: 2.97 µM (active)
[12]
  IC50: > 79 µM (inactive)

## O=c1[nH]c2cc3ccccc3cc2nc1C(F)(F)F
[13]
  IC50: > 75.5 µM (not active)
[14]
  IC50: 2.9 µM (active)
[15]
  IC50: > 66 µM (inactive)
[16]
  IC50: 46.2 µM (inactive)

## COC(=O)c1cc2c(C)cc3ccc(C)cn3c-2c1C(=O)OC
[13]
  IC50: 12.2 µM (not active)
[14]
  IC50: > 2.21 µM (active)

## CCCn1c(=O)nc(NCc2ccc(C)cc2)[nH]c1=O
[17]
  IC50: > 100 µM (not active)
[18]
  IC50: > 100 µM (not active)
[19]
  IC50: > 100 µM (inactive)
[20]
  IC50: > 100 µM (inactive)

## C=CCCC/C=C(/C)C(OCc1ccc(OC)cc1)C(CC/C=C(\C)C(N)=O)OC (configuration not stated)
[21]
  AC50: 2.51 µM (inconclusive)
[1]
  AC50: 3.16 µM (inconclusive)

## CCOC(=O)C1Nc2c(OC)cccc2C2OCCC12 (configuration not stated)
[17]
  IC50: > 100 µM (not active)
[18]
  IC50: > 100 µM (not active)
[19]
  IC50: > 100 µM (inactive)
[20]
  IC50: > 100 µM (inactive)

## CCc1ccc(Nc2n[n+](-c3ccccc3)c(-c3cc(OC)c(OC)cc3Br)s2)cc1
[10]
  EC50: 21.2 µM (inactive)

## C=CCNC(=O)CCCOc1cc(C)ccc1C
[22]
  EC50: > 50 µM (not active)

## CCN(C1CCCCC1)S(=O)(=O)c1ccc(OC)c(C)c1
[23]
  EC50: > 50 µM (active)
[11]
  EC50: 3.88 µM (active)

## Cc1cc(/C=c2/sc3nc4ccccc4n3c2=O)c(C)n1-c1ccccn1
[24]
  EC50: 0.084 µM (active)
[25]
  EC50: > 300 µM (not active)
[26]
  EC50: 0.076 µM (active)
[27]
  EC50: > 300 µM (not active)
[28]
  EC50: < 0.16 µM (active)
[29]
  EC50: < 0.1 µM (active)
[30]
  EC50: 0.092 µM (active)

## Cc1ccsc1/C=N/n1c(S)nnc1-c1ccco1
[31]
  IC50: > 100 µM (inactive)
[32]
  IC50: 1.79 µM (active)

## C/C(=N\O)c1ccc2c3ccccc3n(C)c2c1
[22]
  EC50: > 50 µM (not active)
